Biological target: Arabidopsis thaliana SHMT
Assay: SHMT activity assay (ED50 SHMT), coupled with N5,N10-CH2-THF dehydrogenase, NADH at 340 nm
Assay type: biochemical
Procedure: Determination of the ED50 SHMT was carried out as described hereinunder.
Purification of Arabidopsis thaliana SHMT
The following buffers were used during the purification protocol:
Buffer A (Lysis and Wash Buffer): • 20 mM Na-Phosphat (pH 7,4) • 500 mM NaCI • 40 mM Imidazole • 1.0 mM L-Serine • 0.5 mM Pyridoxal-5-phosphate • 0.5 mM DTT
Buffer B (Elution Buffer): • 20 mM Na-Phosphat (pH 7,4) • 500 mM NaCl • 250 mM Imidazole • 1.0 mM L-Serine • 0.5 mM Pyridoxal-5-phosphate • 0.5 mM DTT
All procedures were conducted at 4° C. or on ice. Pellets were suspended in Buffer A containing 1 mg/ml DNAse +Complete EDTA-free protease inhibitor tablet. Cells were lysed using sonication or a French Press device, using standard settings. Lysis was centrifuged at 40000×g for 25 minutes. The supernatant was filtered (0.22 μM) before loading onto a Ni-NTA column.
A gravity flow column containing Ni-NTA resin was equilibrated with 10 CV Buffer A and loaded with filtered cell lysate. The column was then washed with 10 CV Buffer A. Elution was afforded using Buffer B and collected manually as mini-factions. EDTA was added after elution to a final concentration of 1 mM. Fractions were pooled on the basis of the correct band for SHMT visualised via SDS-PAGE and staining.
SHMT Assay Buffer: • 50 mM KH2PO4 (pH 7,4) • 2.0 mM NAD+ • 7.5 mM DTT • 0.3 mM Tetrahydrofolic acid • 4% DMSO
Reaction Start: 20 mM L-Serine
The rate of N5,N10-CH2-THF formation catalyzed by SHMT was monitored at 340 nm by coupling with excess N5,N10-CH2-THF dehydrogenase, which converts NAD+to NADH. Reactions were initiated by adding 20 mM L-Serine. Inhibition of initial velocity was determined by adding various inhibitors of the SHMT reaction and monitored as described. Reactions were measured in a Bio Tek micro titer plate reader following the change in absorption with the formation of NADH for 30 mimnutes.

[1] = Table 2, Arabidopsis thaliana SHMT enzyme assay, values given as upper bounds
[2] = inhibition of initial velocity of Arabidopsis thaliana SHMT
[3] = Arabidopsis thaliana SHMT enzyme assay, values given as upper bounds
[4] = Table 2, values given as upper bounds

| SMILES | EC50 [1] [nM] | EC50 [4] [nM] | other results |
| --- | --- | --- | --- |
| N#CC1=C(N)Oc2[nH]ncc2C1(c1cc(Cl)cc(Cl)c1)C1(F)CCC1 (stereo not shown) [Compound 2.288] | < 100 | – | – |
| CCC1(c2ccc3c(c2)C(C)(C)CCC3(C)C)C(C#N)=C(N)Oc2[nH]nc(C)c21 (stereo not shown) [Compound 4.69] | – | – | EC50 [2]: < 1000 nM |
| Cc1n[nH]c2c1C(c1cc(C#N)cc(N(C)CC(=O)O)c1)(C1CCC1)C(C#N)=C(N)O2 (stereo not shown) [Compound 2.693] | – | – | EC50 [3]: < 100 nM |
| Cc1n[nH]c2c1C(c1cc(Cl)cc(C#N)c1)(C1CC=CC1)C(C#N)=C(N)O2 (stereo not shown) [Compound 2.368] | < 10 | – | – |
| CCCC1(c2cc(C#N)cc(C#N)c2)C(C#N)=C(N)Oc2[nH]nc(C)c21 (stereo not shown) [Compound 2.535] | – | < 10 | – |
| Cc1n[nH]c2c1C(c1cc(Cl)cc(-c3ccc(Cl)c(C(=O)O)c3)c1)(C1CCC1)C(C#N)=C(N)O2 (stereo not shown) [Compound 2.557] | – | < 10 | – |
| C#CCCC1(c2cc(Cl)cc(Cl)c2)C(C#N)=C(N)Oc2[nH]nc(C)c21 (stereo not shown) [Compound 2.314] | < 100 | – | – |
| Cc1n[nH]c2c1C(CC(C)C)(c1ccc(Cl)c(Cl)c1)C(C#N)=C(N)O2 (stereo not shown) [Compound 2.141.] | – | < 1000 | – |
| Cc1n[nH]c2c1C(c1cc(C#N)cc(-c3cc(C(=O)O)co3)c1)(C1CCC1)C(C#N)=C(N)O2 (stereo not shown) [Compound 2.684] | – | – | EC50 [3]: < 10 nM |
| CCC1(c2cc(C(F)(F)F)cc(C(F)(F)F)c2)C(C#N)=C(N)Oc2[nH]nc(C(C)C)c21 (stereo not shown) [Compound 2.120.] | – | < 100 | – |
| Cc1n[nH]c2c1C(c1cc(Br)cc(C#N)c1)(C(C)C)C(C#N)=C(N)O2 (stereo not shown) [Compound 2.334] | < 10 | – | – |
| COC(=O)CCS(=O)(=O)N(C)c1cc(C#N)cc(C2(C3CCC3)C(C#N)=C(N)Oc3[nH]nc(C)c32)c1 (stereo not shown) [Compound 2.723] | – | – | EC50 [3]: < 100 nM |
| Cc1n[nH]c2c1C(c1cc(I)cc(I)c1)(C1CCC1)C(C#N)=C(N)O2 (stereo not shown) [Compound 2.308] | < 10 | – | – |
| Cc1n[nH]c2c1C(c1cc(C#N)cc(-c3ccc(C(=O)O)s3)c1)(C1(F)COC1)C(C#N)=C(N)O2 (stereo not shown) [Compound 2.680] | – | – | EC50 [3]: < 1000 nM |
| Cc1n[nH]c2c1C(c1cc(C#N)cc(N(C)C(=O)CCCc3nnn[nH]3)c1)(C1CCC1)C(C#N)=C(N)O2 (stereo not shown) [Compound 2.727] | – | – | EC50 [3]: < 100 nM |
| COC(=O)c1ccc(-c2cc(C#N)cc(C3(C(C)C)C(C#N)=C(N)Oc4[nH]nc(C)c43)c2)o1 (stereo not shown) [Compound 2.706] | – | – | EC50 [3]: < 10 nM |
| Cc1n[nH]c2c1C(c1cc(Cl)cc(-c3ccc(O)cc3)c1)(C1CCC1)C(C#N)=C(N)O2 (stereo not shown) [Compound 2.226] | < 10 | – | – |
| COc1ccc(C2(C3CC3)C(C#N)=C(N)Oc3[nH]nc(C)c32)cc1C(F)(F)F (stereo not shown) [Compound 2.150.] | – | < 100 | – |
| CCC1(c2cc(Br)cc(C#N)c2)C(C#N)=C(N)Oc2[nH]nc(C(F)F)c21 (stereo not shown) [Compound 2.607] | – | < 10 | – |
| Cc1n[nH]c2c1C(c1cccc(C(F)F)c1)(C1CCC1)C(C#N)=C(N)O2 (stereo not shown) [Compound 2.277] | < 10 | – | – |

| SMILES | EC50 [1] [nM] | EC50 [4] [nM] | other results |
| --- | --- | --- | --- |
| N#CC1=C(N)Oc2[nH]ncc2C1(c1cc(Cl)cc(C#N)c1)C1CC1 (stereo not shown) [Compound 2.360] | < 100 | – | – |
| CC(C)C1(c2cc(C#N)cc(C#N)c2)C(C#N)=C(N)Oc2[nH]ncc21 (stereo not shown) [Compound 2.336] | < 10 | – | – |
| CCc1n[nH]c2c1C(CC)(c1cccc(C(F)(F)F)c1)C(C#N)=C(N)O2 (stereo not shown) [Compound 2.98.] | – | < 1000 | – |
| N#CC1=C(N)Oc2[nH]ncc2C1(c1cc(Cl)cc(C(F)(F)F)c1)C1CCC1 (stereo not shown) [Compound 2.252] | < 10 | – | – |
| Cc1n[nH]c2c1C(c1cc(Cl)cc(C(N)=O)c1)(C1CCC1)C(C#N)=C(N)O2 (stereo not shown) [Compound 2.284] | < 10 | – | – |
| Cc1n[nH]c2c1C(c1cc(Cl)cc(Oc3cccc(F)c3)c1)(C1CC1)C(C#N)=C(N)O2 (stereo not shown) [Compound 2.190.] | – | < 100 | – |
| CCC1(c2ccc(Br)c(Cl)c2)C(C#N)=C(N)Oc2[nH]nc(C)c21 (stereo not shown) [Compound 2.472] | – | < 100 | – |
| CCC1(c2cc(Br)c(C)c(Br)c2)C(C#N)=C(N)Oc2[nH]nc(C)c21 (stereo not shown) [Compound 2.473] | – | < 10 | – |
| Cc1n[nH]c2c1C(c1cc(C#N)cc(-c3cccc(C(=O)O)c3)c1)(C1CCC1)C(C#N)=C(N)O2 (stereo not shown) [Compound 2.461] | – | < 10 | – |
| CCc1n[nH]c2c1C(c1ccc(Cl)cc1)(C1CCC1)C(C#N)=C(N)O2 (stereo not shown) [Compound 2.139.] | – | < 1000 | – |
| COc1c(F)cc(C2(C3(F)CC3)C(C#N)=C(N)Oc3[nH]nc(C)c32)cc1F (stereo not shown) [Compound 2.448] | – | < 1000 | – |
| COC(=O)c1ccc(C2(C3CCC3)C(C#N)=C(N)Oc3[nH]nc(C)c32)s1 (stereo not shown) [Compound 4.27] | – | – | EC50 [2]: < 10 nM |
| COC(=O)Cc1ccc(-c2cc(C#N)cc(C3(C4CCC4)C(C#N)=C(N)Oc4[nH]nc(C)c43)c2)cc1 (stereo not shown) [Compound 2.526] | – | < 10 | – |
| Cc1n[nH]c2c1C(c1cc(Cl)cc(Oc3cccc(C(F)(F)F)c3)c1)(C1CCC1)C(C#N)=C(N)O2 (stereo not shown) [Compound 2.234] | < 10 | – | – |
| Cc1n[nH]c2c1C(c1cccc(S(C)(=O)=O)c1)(C1CCC1)C(C#N)=C(N)O2 (stereo not shown) [Compound 2.313] | < 1000 | – | – |
| Cc1n[nH]c2c1C(c1cc(C#N)cc(C(F)(F)F)c1)(C(C)C)C(C#N)=C(N)O2 (stereo not shown) [Compound 2.338] | < 10 | – | – |
| Cc1n[nH]c2c1C(c1cc(Cl)cc(OCc3nnn[nH]3)c1)(C1CCC1)C(C#N)=C(N)O2 (stereo not shown) [Compound 2.446] | – | < 10 | – |
| COc1ccc(Oc2cc(Cl)cc(C3(C4CCC4)C(C#N)=C(N)Oc4[nH]nc(C)c43)c2)cc1 (stereo not shown) [Compound 2.344] | < 10 | – | – |
| Cc1n[nH]c2c1C(c1cc(OCc3nnn[nH]3)cc(C(F)(F)F)c1)(C1CCC1)C(C#N)=C(N)O2 (stereo not shown) [Compound 2.474] | – | < 10 | – |
| Cc1n[nH]c2c1C(c1cc(C#N)cc(-c3ccc(C(=O)O)c(F)c3)c1)(C1CCC1)C(C#N)=C(N)O2 (stereo not shown) [Compound 2.560] | – | < 10 | – |

| SMILES | EC50 [1] [nM] | EC50 [4] [nM] | other results |
| --- | --- | --- | --- |
| COC(=O)CCc1cccc(-c2cc(C#N)cc(C3(C4CCC4)C(C#N)=C(N)Oc4[nH]nc(C)c43)c2)c1 (stereo not shown) [Compound 2.523] | – | < 10 | – |
| Cc1n[nH]c2c1C(c1cccc(C(F)(F)F)c1)(C1CCCCC1)C(C#N)=C(N)O2 (stereo not shown) [Compound 2.230] | < 10000 | – | – |
| COc1c(Cl)cc(C2(C3CCC3)C(C#N)=C(N)Oc3[nH]nc(C)c32)cc1C#N (stereo not shown) [Compound 2.487] | – | < 10 | – |
| Cc1n[nH]c2c1C(c1cc(Cl)cc(-c3cccc(C#N)c3)c1)(C1CCC1)C(C#N)=C(N)O2 (stereo not shown) [Compound 2.512] | – | < 10 | – |
| CCCC1(c2cc(Br)cc(C#N)c2)C(C#N)=C(N)Oc2[nH]nc(OC)c21 (stereo not shown) [Compound 2.603] | – | < 1000 | – |
| CCCC1(c2cc(Cl)cc(C#N)c2)C(C#N)=C(N)Oc2[nH]nc(OC)c21 (stereo not shown) [Compound 2.602] | – | < 10000 | – |
| Cc1n[nH]c2c1C(c1cc(Cl)cc(Oc3cccc(Cl)c3)c1)(C1CC1)C(C#N)=C(N)O2 (racemic) [Compound 2.347] | < 10 | – | – |
| Cc1n[nH]c2c1C(c1cc(Cl)cc(-c3cccc(F)c3)c1)(C1CCC1)C(C#N)=C(N)O2 (stereo not shown) [Compound 2.223] | < 10 | – | – |
| CCC1(c2cccc(Cl)c2)C(C#N)=C(N)Oc2[nH]nc(CCC(F)F)c21 (stereo not shown) [Compound 2.105.] | – | < 10000 | – |
| CCC1(c2cc(F)cc(C(F)(F)F)c2)C(C#N)=C(N)Oc2[nH]nc(C)c21 (stereo not shown) [Compound 2.33.] | – | < 100 | – |
| COC(=O)c1cccc(-c2cc(Cl)cc(C3(C4CCC4)C(C#N)=C(N)Oc4[nH]nc(OC)c43)c2)c1 (stereo not shown) [Compound 2.457] | – | < 10 | – |
| CCc1n[nH]c2c1C(c1cccc(C(F)(F)F)c1)(C1CC1)C(C#N)=C(N)O2 (stereo not shown) [Compound 2.104.] | – | < 1000 | – |
| CCCC1(c2cc(Cl)cc(C#N)c2)C(C#N)=C(N)Oc2[nH]nc(C)c21 (stereo not shown) [Compound 2.533] | – | < 10 | – |
| Cc1n[nH]c2c1C(c1cc(Cl)c(O)c(C#N)c1)(C1CCC1)C(C#N)=C(N)O2 (stereo not shown) [Compound 2.567] | – | < 100 | – |
| Cc1n[nH]c2c1C(c1cc(-c3nnn[nH]3)cc(N(C)CCC#N)c1)(C1CCC1)C(C#N)=C(N)O2 (stereo not shown) [Compound 2.692] | – | – | EC50 [3]: < 1000 nM |
| COc1ccc(C2(C(C)C)C(C#N)=C(N)Oc3[nH]nc(C)c32)cc1 (stereo not shown) [Compound 2.167.] | – | < 1000 | – |
| Cc1n[nH]c2c1C(c1cc(Cl)cc(C#N)c1)(C1(F)CC1)C(C#N)=C(N)O2 (racemic) [Compound 2.379] | < 10 | – | – |
| CCC1(c2ccc(F)c(Cl)c2)C(C#N)=C(N)Oc2[nH]nc(C)c21 (stereo not shown) [Compound 2.19.] | – | < 100 | – |

Source: patent US9480259B2, “Pyrazolopyrans having herbicidal and pharmaceutical properties” (BASF SE, priority 2012, dated 2016)
